Test results: patent US20170020838A1, “TREATMENT FOR RESPIRATORY DISEASE” (MUCOKINETICA LIMITED, priority 2014, published 2017)

Assays:
[1] = system: ciliary transport of pig airway mucus secretions on the ex vivo pig trachea; assay: Ciliary transport of mucus secretions (tracheal mucus velocity) on ex vivo normal pig trachea; conditions: for first time point where increased ciliary transport is observed (class summary): Classes 2 and 3, after application of the treatment; for onset and duration profile of increased ciliary transport of secretions: normal pig trachea, single 10 min treatment; for class of ciliary transport enhancer: three classes of ENaC regulating substances; for time of maximum transport speed following initiation of treatment / first time point with increased ciliary transport compared to BSS controls: 0.1 mM UTP; for first time point with increased ciliary transport compared to BSS controls: applied 10 min in BSS: 10^−4 M amiloride, +50 mM-NaCl, 100 mosM-mannitol, 100 mosM-sodium gluconate, combinations with 10^−5M Rx
Description: The lumen of each trachea was cleaned by gentle irrigation with BSS. Tracheas were opened longitudinally with scissors along the posterior aspect and mounted with the posterior aspect upwards in a moist air-tight box. An aliquot of pig airway mucus approximately 3 mm diameter was placed on the mucosal surface close to the distal end of each trachea. Tracheal mucus velocity (TMV mm/min) was measured by recording the distance moved, towards the laryngeal end of the trachea, in a given time. At the start of the study three measurements of TMV were made for each trachea to establish a baseline rate for the trachea. Solutions were then pipetted onto the luminal mucosal surface of tracheas for 10 min; BSS control tracheas (open circles; n=6); 10^−4 M amiloride in BSS (closed squares; n=6). Excess solution was then tipped off the mucosal surface and measurement of TMV repeated. TMV results at each time point are expressed as % of the baseline TMV, ciliary transport index (mean±SD).
(§1) Pig tracheas (from larynx to carina) from normal wild type animals were obtained from a local abattoir or Veterinary University. Transgenic CF piglets were produced as described by Klymiuk et al. 2012, and tracheas were obtained at a Veterinary University. The lumen of each trachea was cleaned by gentle irrigation with BSS. Tracheas were opened longitudinally with scissors along the posterior aspect and mounted with the posterior aspect upwards in a moist air-tight box. An aliquot of pig airway mucus approximately 3 mm diameter was placed on the mucosal surface close to the distal end of each trachea. Tracheal mucus velocity (TMV mm/min) was measured by recording the distance moved, towards the laryngeal end of the trachea, in a given time. At the start of a study three measurements of TMV were made for each trachea to establish a baseline rate for the trachea. Solutions were then pipetted onto the luminal mucosal surface of tracheas for 10 min. Then excess solution was tipped off the mucosal surface and measurement of TMV repeated. TMV results at each time point are expressed as % of the baseline TMV, ciliary transport index (mean±SD).

kidney sodium channel = conditions: cortical collecting duct of the rabbit kidney; Muto et al. 1993; cited from earlier work
[2] = system: ciliary transport of pig airway mucus secretions on the ex vivo trachea of transgenic CF piglets; assay: Ciliary transport of mucus secretions on ex vivo trachea of transgenic CF piglets; parameters: speed of ciliary transport at the first three time points (25, 40 and 55 min), day 1: dose or concentration left out as unconfirmed
Description: FIG. 13 Study of the effects of 6-amidino-2-napthyl 4-guanidinobenzoate in BSS, and a combination of hyperosmotic saline and 6-amidino-2-napthyl 4-guanidinobenzoate in BSS on ciliary transport of pig airway mucus secretions on the ex vivo trachea of transgenic CF piglets. Transgenic CF piglets were produced as described by Klymiuk et al. 2012, and tracheas obtained at a Veterinary University. Study methods were otherwise as described in FIG. 10. Ciliary transport index (mean) was measured over two days with a second treatment period at the start of the second day.
as §1

ENaC = conditions: human airway epithelial cells; Rasgado et al. 2009 & 2013; cited from earlier work

SMILES: N=C(N)Nc1ccc(C(=O)Oc2ccc3cc(C(=N)N)ccc3c2)cc1 [6-amidino-2-napthyl 4-guanidinobenzoate]
- ciliary transport speed at the first two time points (25 and 40 min) compared to BSS controls ([1]; 10^−5M in BSS): no increase in speed
- ciliary transport at 24 h following exposure to the treatment (class summary) ([1]; Class 3): continues to exceed control transport rate
- first time point where increased ciliary transport is observed (class summary) [1]: 55 min
- dose of maximum increase in ciliary transport ([1]; at 3 h 40 min, tested 10^−9 M to 10^−5 M): 10^−6 M
- onset and duration profile of increased ciliary transport of secretions [1]: slow-onset long duration
- class of ciliary transport enhancer [1]: Slow onset—long duration
- action on the kidney sodium channel (kidney sodium channel): weak, short acting inhibitor
- speed of ciliary transport at the first three time points (25, 40 and 55 min), day 1 ([2]; in BSS, 10 min): no increase in speed
- speed of ciliary transport at the first time point (25 min), day 2 ([2]; second 10 min treatment with 10^−5 M at 14 h 10 min): No increase in speed
- onset and duration profile of increased ciliary transport, both days ([2]; transgenic CF pig tracheas): slow-onset long duration

SMILES: O=c1ccn([C@@H]2O[C@H](COP(=O)(O)OP(=O)(O)OP(=O)(O)O)[C@@H](O)[C@H]2O)c(=O)[nH]1 [UTP, uridine 5′-triphosphate]
- time of maximum transport speed following initiation of treatment ([1]; 10^−4 M amiloride): 55 min
- first time point where increased ciliary transport is observed (class summary) [1]: 25 min
- first time point with increased ciliary transport compared to BSS controls [1]: 25 min
- onset and duration profile of increased ciliary transport of secretions [1]: medium-onset medium duration
- class of ciliary transport enhancer [1]: Medium onset—medium duration

SMILES: N=C(N)NC(=O)c1nc(Cl)c(N)nc1N [amiloride]
- difference from BSS control tracheas at 40 min, 55 min and 1 h 10 min ([1]; 10^−4 M amiloride): no significant difference
- duration of stimulation of ciliary transport ([1]; 10^−4 M amiloride): less than 1 h
- time by which transport speed returned to control levels ([1]; 10^−4 M amiloride): ≤ 40 min
- stimulated ciliary transport through to (last time point) ([1]; 10^−4 M amiloride in BSS applied 10 min): 35 min
- time of maximum transport speed following initiation of treatment ([1]; 10^−4 M amiloride): 25 min
- onset of increased ciliary transport of secretions (class summary) ([1]; Class 1): immediate
- return to control transport rate (class summary) ([1]; Class 1): ≤ 40 min
- peak increase in the rate of ciliary transport (class summary) ([1]; Classes 1 to 3 of ciliary transport enhancers): 30%
- first time point with increased ciliary transport compared to BSS controls [1]: 10 min
- onset and duration profile of increased ciliary transport of secretions [1]: rapid onset and of short duration
- class of ciliary transport enhancer [1]: Rapid onset—short duration

SMILES: OC[C@@H](O)[C@@H](O)[C@H](O)[C@H](O)CO [hyperosmotic mannitol, mannitol]
- first time point where increased ciliary transport is observed (class summary) [1]: 25 min
- first time point with increased ciliary transport compared to BSS controls [1]: 25 min
- onset and duration profile of increased ciliary transport of secretions [1]: medium-onset medium duration
- class of ciliary transport enhancer [1]: Medium onset—medium duration
- effect of hyperosmotic concentrations on ENaC activity (ENaC): reduced ENaC activity

SMILES: O=C([O-])[C@H](O)[C@@H](O)[C@H](O)[C@H](O)CO.[Na+] [hyperosmotic sodium gluconate, sodium gluconate]
- first time point where increased ciliary transport is observed (class summary) [1]: 25 min
- first time point with increased ciliary transport compared to BSS controls [1]: 25 min
- onset and duration profile of increased ciliary transport of secretions [1]: medium-onset medium duration
- class of ciliary transport enhancer [1]: Medium onset—medium duration
